Laboratory results as given in US9951063B2, “8-(piperazin-1-yl)-1,2,3,4-tetrahydro-isoquinoline derivatives” (IDORSIA PHARMACEUTICALS LTD, priority 2014, dated 2018).

Molecular target: human CXCR3A (Homo sapiens (Human), UniProt P49682)
Experiment: FLIPR assay (inhibition of CXCL10-induced calcium signal)
Format: cell-based
Conditions: engineered CHO-K1 cells expressing human CXCR3A coupled to Galpha(16); Fluo-4-AM; CXCL10 agonist 20 nM; mean values where determined several times
Procedure: The bioactivity of compounds is tested in a fluorometric imaging plate reader (FLIPR: Molecular Devices) using engineered CHO-K1 cells expressing the human CXCR3A (GenBank: AY242128) coupled to a G protein (Galpha(16)). Cells are plated the day prior to bioassay in F12 medium supplemented with 10% FBS and G418 and hygromycin antibiotics to maintain recombinant selection. At the day of bioassay, cells are washed and dye loaded for one hour with Fluo-4-AM (Invitrogen) in Hanks Balanced Salt Solution (Invitrogen), buffered with 20 mM Hepes at pH 7.4 and sodium bicarbonate (0.038%), containing 5 mM probenecid. This buffer, but lacking the dye and containing probenecid at a concentration of 2.5 mM, is also used for washing steps (wash buffer); or lacking both dye and probenecid but supplemented with 0.1% BSA for compound dilution steps (dilution buffer). Cells are washed free of excess dye and 60 microliter of wash buffer is added. Stock solutions of test compounds are made up at a concentration of 10 mM in DMSO, and serially diluted in dilution buffer to concentrations required for inhibition dose response curves. After a 10 minute incubation period at 37° C., 10 microliters of each compound dilution are transferred from a compound plate to the plate containing the recombinant cells in the FLIPR instrument according to the manufacturer's instructions. Following basal readings, 10 microliter CXCL10 agonist at a concentration of 20 nM (from Peprotech) is added, again using the FLIPR instrument. Changes in fluorescence are monitored before and after addition of the test compounds. Emission peak values above base level after CXCL10 addition are exported after base line subtraction.
The calculated IC50 values may fluctuate depending on the daily assay performance. Fluctuations of this kind are known to those skilled in the art. In the case where IC50 values have been determined several times for the same compound, mean values are given.

Chain of human CXCR3A (P49682 whole entry): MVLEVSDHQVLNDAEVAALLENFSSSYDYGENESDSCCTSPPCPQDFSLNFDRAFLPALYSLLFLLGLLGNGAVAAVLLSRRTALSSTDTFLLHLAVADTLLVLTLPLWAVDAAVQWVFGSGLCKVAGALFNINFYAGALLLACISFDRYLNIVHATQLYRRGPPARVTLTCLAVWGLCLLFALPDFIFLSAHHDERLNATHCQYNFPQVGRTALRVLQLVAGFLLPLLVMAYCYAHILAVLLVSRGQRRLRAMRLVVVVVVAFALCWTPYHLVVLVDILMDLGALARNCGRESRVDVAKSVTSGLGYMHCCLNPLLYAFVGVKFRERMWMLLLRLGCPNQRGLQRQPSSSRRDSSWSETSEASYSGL

| Structure (SMILES) | IC50 |
| --- | --- |
| C[C@@H]1CN(c2ccc(C(F)(F)F)c3c2CN(c2cnc(C4CC4)nc2)CC3)CCN1C(=O)Cn1ncc2cccnc21 [Example 47, 1-{(R)-4-[2-(2-Cyclopropyl-pyrimidin-5-yl)-5-trifluoromethyl-1,2,3,4-tetrahydro-isoquinolin-8-yl]-2-methyl-piperazin-1-yl}-2-pyrazolo[3,4-b]pyridin-1-yl-ethanone] | 7.27 nM |
| Cc1ccn(CC(=O)N2CCN(c3ccc(C(F)(F)F)c4c3CN(c3cnc(C5CC5)nc3)CC4)C[C@H]2C)n1 [Example 48, 1-{(R)-4-[2-(2-Cyclopropyl-pyrimidin-5-yl)-5-trifluoromethyl-1,2,3,4-tetrahydro-isoquinolin-8-yl]-2-methyl-piperazin-1-yl}-2-(3-methyl-pyrazol-1-yl)-ethanone] | 1.4 nM |
| Cc1ccnn1CC(=O)N1CCN(c2ccc(C(F)(F)F)c3c2CN(c2cnc(C4CC4)nc2)CC3)C[C@H]1C [Example 49, 1-{(R)-4-[2-(2-Cyclopropyl-pyrimidin-5-yl)-5-trifluoromethyl-1,2,3,4-tetrahydro-isoquinolin-8-yl]-2-methyl-piperazin-1-yl}-2-(5-methyl-pyrazol-1-yl)-ethanone] | 3.56 nM |
| Cc1nc(C)n(CC(=O)N2CCN(c3ccc(C(F)(F)F)c4c3CN(c3cnc(N(C)C)nc3)CC4)C[C@H]2C)n1 [Example 50, 1-{(R)-4-[2-(2-Dimethylamino-pyrimidin-5-yl)-5-trifluoromethyl-1,2,3,4-tetrahydro-isoquinolin-8-yl]-2-methyl-piperazin-1-yl}-2-(3,5-dimethyl-[1,2,4]triazol-1-yl)-ethanone] | 2.26 nM |
| Cc1ccn(CC(=O)N2CCN(c3ccc(C(F)(F)F)c4c3CN(c3cnc(N(C)C)nc3)CC4)C[C@H]2C)n1 [Example 51, 1-{(R)-4-[2-(2-Dimethylamino-pyrimidin-5-yl)-5-trifluoromethyl-1,2,3,4-tetrahydro-isoquinolin-8-yl]-2-methyl-piperazin-1-yl}-2-(3-methyl-pyrazol-1-yl)-ethanone] | 4.93 nM |
| Cc1ccnn1CC(=O)N1CCN(c2ccc(C(F)(F)F)c3c2CN(c2cnc(N(C)C)nc2)CC3)C[C@H]1C [Example 52, 1-{(R)-4-[2-(2-Dimethylamino-pyrimidin-5-yl)-5-trifluoromethyl-1,2,3,4-tetrahydro-isoquinolin-8-yl]-2-methyl-piperazin-1-yl}-2-(5-methyl-pyrazol-1-yl)-ethanone] | 4.1 nM |
| C[C@@H]1CN(c2ccc(C(F)(F)F)c3c2CN(c2cnc(N(C)C)nc2)CC3)CCN1C(=O)Cn1ncc2cccnc21 [Example 53, 1-{(R)-4-[2-(2-Dimethylamino-pyrimidin-5-yl)-5-trifluoromethyl-1,2,3,4-tetrahydro-isoquinolin-8-yl]-2-methyl-piperazin-1-yl}-2-pyrazolo[3,4-b]pyridin-1-yl-ethanone] | 6.15 nM |
| CCOc1ncc(N2CCc3c(C(F)(F)F)ccc(N4CCN(C(=O)Cn5nc(C)nc5C)[C@H](C)C4)c3C2)cn1 [Example 54, 2-(3,5-Dimethyl-[1,2,4]triazol-1-yl)-1-{(R)-4-[2-(2-ethoxy-pyrimidin-5-yl)-5-trifluoromethyl-1,2,3,4-tetrahydro-isoquinolin-8-yl]-2-methyl-piperazin-1-yl}-ethanone] | 6.22 nM |
| CCOc1ncc(N2CCc3c(C(F)(F)F)ccc(N4CCN(C(=O)Cn5nc(C)cc5C)[C@H](C)C4)c3C2)cn1 [Example 55, 2-(3,5-Dimethyl-pyrazol-1-yl)-1-{(R)-4-[2-(2-ethoxy-pyrimidin-5-yl)-5-trifluoromethyl-1,2,3,4-tetrahydro-isoquinolin-8-yl]-2-methyl-piperazin-1-yl}-ethanone] | 10 nM |
| Cc1cc(C)n(CC(=O)N2CCN(c3ccc(C(F)(F)F)c4c3CN(c3ncc(-c5ccccc5)o3)CC4)C[C@H]2C)n1 [Example 56, 2-(3,5-Dimethyl-pyrazol-1-yl)-1-{(R)-2-methyl-4-[2-(5-phenyl-oxazol-2-yl)-5-trifluoromethyl-1,2,3,4-tetrahydro-isoquinolin-8-yl]-piperazin-1-yl}-ethanone] | 8.14 nM |
| Cc1cc(C)n(CC(=O)N2CCN(c3ccc(C(F)(F)F)c4c3CN(c3nc5ccccc5s3)CC4)C[C@H]2C)n1 [Example 57, 1-[(R)-4-(2-Benzothiazol-2-yl-5-trifluoromethyl-1,2,3,4-tetrahydro-isoquinolin-8-yl)-2-methyl-piperazin-1-yl]-2-(3,5-dimethyl-pyrazol-1-yl)-ethanone] | 26.5 nM |
| CCc1ncc(N2CCc3c(C(F)(F)F)ccc(N4CCN(C(=O)Cn5nc(C)nc5C)[C@H](C)C4)c3C2)cn1 [Example 58, 2-(3,5-Dimethyl-[1,2,4]triazol-1-yl)-1-{(R)-4-[2-(2-ethyl-pyrimidin-5-yl)-5-trifluoromethyl-1,2,3,4-tetrahydro-isoquinolin-8-yl]-2-methyl-piperazin-1-yl}-ethanone] | 16.9 nM |
| Cc1nc(C)n(CC(=O)N2CCN(c3ccc(C(F)(F)F)c4c3CN(c3cnc(C(F)(F)F)nc3)CC4)C[C@H]2C)n1 [Example 59, 2-(3,5-Dimethyl-[1,2,4]triazol-1-yl)-1-{(R)-2-methyl-4-[5-trifluoromethyl-2-(2-trifluoromethyl-pyrimidin-5-yl)-1,2,3,4-tetrahydro-isoquinolin-8-yl]-piperazin-1-yl}-ethanone] | 12.3 nM |
| C[C@@H]1CN(c2cccc3c2CN(C(=O)OCc2ccccc2)CC3)CCN1C(=O)Cn1cnc2cccnc21 [Example 60, 8-[(R)-4-(2-Imidazo[4,5-b]pyridin-3-yl-acetyl)-3-methyl-piperazin-1-yl]-3,4-dihydro-1H-isoquinoline-2-carboxylic acid benzyl ester] | 7.94 nM |
| C[C@@H]1CN(c2cccc3c2CN(C(=O)C2CC2)CC3)CCN1C(=O)Cn1cnc2cccnc21 [Example 61, 1-[(R)-4-(2-Cyclopropanecarbonyl-1,2,3,4-tetrahydro-isoquinolin-8-yl)-2-methyl-piperazin-1-yl]-2-imidazo[4,5-b]pyridin-3-yl-ethanone] | 223 nM |
| COc1ccc(C(=O)N2CCc3cccc(N4CCN(C(=O)Cn5cnc6cccnc65)[C@H](C)C4)c3C2)cc1 [Example 62, 2-Imidazo[4,5-b]pyridin-3-yl-1-{(R)-4-[2-(4-methoxy-benzoyl)-1,2,3,4-tetrahydro-isoquinolin-8-yl]-2-methyl-piperazin-1-yl}-ethanone] | 121 nM |
| C[C@@H]1CN(c2cccc3c2CN(C(=O)Cc2cccnc2)CC3)CCN1C(=O)Cn1cnc2cccnc21 [Example 63, 2-Imidazo[4,5-b]pyridin-3-yl-1-{(R)-2-methyl-4-[2-(2-pyridin-3-yl-acetyl)-1,2,3,4-tetrahydro-isoquinolin-8-yl]-piperazin-1-yl}-ethanone] | 668 nM |
| COc1ccc(CCC(=O)N2CCc3cccc(N4CCN(C(=O)Cn5cnc6cccnc65)[C@H](C)C4)c3C2)cc1 [Example 64, 1-{8-[(R)-4-(2-Imidazo[4,5-b]pyridin-3-yl-acetyl)-3-methyl-piperazin-1-yl]-3,4-dihydro-1H-isoquinolin-2-yl}-3-(4-methoxy-phenyl)-propan-1-one] | 188 nM |
| C[C@@H]1CN(c2cccc3c2CN(C(=O)c2cocn2)CC3)CCN1C(=O)Cn1cnc2cccnc21 [Example 65, 2-Imidazo[4,5-b]pyridin-3-yl-1-{(R)-2-methyl-4-[2-(oxazole-4-carbonyl)-1,2,3,4-tetrahydro-isoquinolin-8-yl]-piperazin-1-yl}-ethanone] | 483 nM |
| C[C@@H]1CN(c2cccc3c2CN(C(=O)Cn2ccc4ccccc42)CC3)CCN1C(=O)Cn1cnc2cccnc21 [Example 66, 2-Imidazo[4,5-b]pyridin-3-yl-1-{(R)-4-[2-(2-indol-1-yl-acetyl)-1,2,3,4-tetrahydro-isoquinolin-8-yl]-2-methyl-piperazin-1-yl}-ethanone] | 304 nM |
| CC(C)C(=O)N1CCc2cccc(N3CCN(C(=O)Cn4cnc5cccnc54)[C@H](C)C3)c2C1 [Example 67, 1-{8-[(R)-4-(2-Imidazo[4,5-b]pyridin-3-yl-acetyl)-3-methyl-piperazin-1-yl]-3,4-dihydro-1H-isoquinolin-2-yl}-2-methyl-propan-1-one] | 614 nM |
| COCC(=O)N1CCc2cccc(N3CCN(C(=O)Cn4cnc5cccnc54)[C@H](C)C3)c2C1 [Example 68, 2-Imidazo[4,5-b]pyridin-3-yl-1-{(R)-4-[2-(2-methoxy-acetyl)-1,2,3,4-tetrahydro-isoquinolin-8-yl]-2-methyl-piperazin-1-yl}-ethanone] | 599 nM |
| C[C@@H]1CN(c2cccc3c2CN(C(=O)C2CCCC2)CC3)CCN1C(=O)Cn1cnc2cccnc21 [Example 69, 1-[(R)-4-(2-Cyclopentanecarbonyl-1,2,3,4-tetrahydro-isoquinolin-8-yl)-2-methyl-piperazin-1-yl]-2-imidazo[4,5-b]pyridin-3-yl-ethanone] | 21.7 nM |
| C[C@@H]1CN(c2cccc3c2CN(C(=O)C2CCCCC2)CC3)CCN1C(=O)Cn1cnc2cccnc21 [Example 70, 1-[(R)-4-(2-Cyclohexanecarbonyl-1,2,3,4-tetrahydro-isoquinolin-8-yl)-2-methyl-piperazin-1-yl]-2-imidazo[4,5-b]pyridin-3-yl-ethanone] | 55.5 nM |
